Reference: patent publication US12465588B2, “Indole carboxamide derivative and pharmaceutical composition containing same” (KUKJE PHARMA CO., LTD., priority 2019, dated 2025)

test system: A549 human lung cancer cells; experiment: Measurement of PGE2 in IL-1β-treated A549 human lung cancer cells; type: cell-based; details: PGE2 production, A549 cell, IL-1β 1 ng/mL, 48 hours
Experimental: Samples at various concentrations were added at 24 hours after A549 human lung cancer cells were seeded. After 1 hour, IL-1β of 1 ng/mL was added. The cells were cultured for 48 hours and then the culture supernatant was collected. PGE2 of the collected supernatant was measured according to the manufacturer's instructions using a PGE2 EIA kit.

Structure (SMILES)	IC50
Cc1cc(Cl)ccc1NC(=O)c1cc2cc(NC(=O)c3cc(CNC(=O)C(C)C)ccc3Cl)ccc2n1C [Compound 22, N-(4-chloro-2-methylphenyl)-5-(2-chloro-5-(isobutyramidomethyl)benzamido)-1-methyl-1H-indole-2-carboxamide]	27.4 nM
CC(C)C(=O)NCc1ccc(Cl)c(C(=O)Nc2ccc3c(c2)cc(C(=O)NCc2ccc(C(C)(C)C)cc2)n3CC(F)(F)F)c1 [Compound 62, N-(4-(tert-butyl)benzyl)-5-(2-chloro-5-(isobutyramidomethyl)benzamido)-1-(2,2,2-trifluoroethyl)-1H-indole-2-carboxamide]	27.5 nM
CC(C)C(=O)NCc1ccc(Cl)c(C(=O)Nc2ccc3c(c2)cc(C(=O)Nc2cccc(-c4ccc(C(F)(F)F)cc4)c2)n3C)c1 [Compound 16, 5-(2-chloro-5-(isobutyramidomethyl)benzamido)-1-methyl-N-(4′-(trifluoromethyl)-[1,1′-biphenyl]-3-yl)-1H-indole-2-carboxamide]	7.19 nM
Cc1c(-c2ccc(C(F)(F)F)cc2)n[nH]c1NC(=O)c1cc2cc(NC(=O)c3cc(CNC(=O)C(C)C)ccc3Cl)ccc2n1C [Compound 20, 5-(2-chloro-5-(isobutyramidomethyl)benzamido)-1-methyl-N-(4-methyl-3-(4-(trifluoromethyl)phenyl)-1H-pyrazol-5-yl)-1H-indole-2-carboxamide]	6.87 nM
CC(C)C(=O)NCc1ccc(Cl)c(C(=O)Nc2ccc3c(c2)cc(C(=O)NCc2ccc(C(F)(F)F)cc2)n3CC(F)(F)F)c1 [Compound 64, 5-(2-chloro-5-(isobutyramidomethyl)benzamido)-1-(2,2,2-trifluoroethyl)-N-(4-(trifluoromethyl)benzyl)-1H-indole-2-carboxamide]	9.38 nM
CC(C)C(=O)NCc1ccc(Cl)c(C(=O)Nc2ccc3c(c2)cc(C(=O)NCc2ccc(Cl)cc2)n3C)c1 [Compound 49, 5-(2-chloro-5-(isobutyramidomethyl)benzamido)-N-(4-chlorobenzyl)-1-methyl-1H-indole-2-carboxamide]	9.75 nM
CC(C)C(=O)NCc1ccc(Cl)c(C(=O)Nc2ccc3c(c2)cc(C(=O)NCc2ccc(F)cc2)n3C)c1 [Compound 32, 5-(2-chloro-5-(isobutyramidomethyl)benzamido)-N-(4-fluorobenzyl)-1-methyl-1H-indole-2-carboxamide]	9.62 nM
CC(C)C(=O)NCc1ccc(Cl)c(C(=O)Nc2ccc3c(c2)cc(C(=O)NCc2ccc(Cl)c(F)c2)n3CC(F)(F)F)c1 [Compound 71, N-(4-chloro-3-fluorobenzyl)-5-(2-chloro-5-(isobutyramidomethyl)benzamido)-1-(2,2,2-trifluoroethyl)-1H-indole-2-carboxamide]	20.1 nM
CC(C)C(=O)NCc1ccc(Cl)c(C(=O)Nc2ccc3c(c2)cc(C(=O)Nc2ccc(C(F)(F)F)nc2)n3C)c1 [Compound 18, 5-(2-chloro-5-(isobutyramidomethyl)benzamido)-1-methyl-N-(6-(trifluoromethyl)pyridin-3-yl)-1H-indole-2-carboxamide]	60 nM
CC(C)C(=O)NCc1ccc(Cl)c(C(=O)Nc2ccc3c(c2)cc(C(=O)N[C@H](C)c2ccc(C(F)(F)F)cc2)n3C)c1 [Compound 58, (R)-5-(2-chloro-5-(isobutyramidomethyl)benzamido)-1-methyl-N-(1-(4-(trifluoromethyl)phenyl)ethyl)-1H-indole-2-carboxamide]	5.54 nM
Cc1cc(F)ccc1NC(=O)c1cc2cc(NC(=O)c3cc(CNC(=O)C(C)C)ccc3Cl)ccc2n1C [Compound 23, 5-(2-chloro-5-(isobutyramidomethyl)benzamido)-N-(4-fluoro-2-methylphenyl)-1-methyl-1H-indole-2-carboxamide]	45 nM
CC(C)C(=O)NCc1ccc(Cl)c(C(=O)Nc2ccc3[nH]c(C(=O)Nc4ccc(OC(F)(F)F)cc4)cc3c2)c1 [Compound 74, 5-(2-chloro-5-(isobutyramidomethyl)benzamido)-N-(4-(trifluoromethoxy)phenyl)-1H-indole-2-carboxamide]	5.87 nM
CC(C)C(=O)NCc1ccc(Cl)c(C(=O)Nc2ccc3c(c2)cc(C(=O)Nc2ccc(F)cc2)n3C)c1 [Compound 2, 5-(2-chloro-5-(isobutyramidomethyl)benzamido)-N-(4-fluorophenyl)-1-methyl-1H-indole-2-carboxamide]	237 nM
CC(C)C(=O)NCc1ccc(Cl)c(C(=O)Nc2ccc3c(c2)cc(C(=O)N[C@H](C)c2ccc(OC(F)(F)F)cc2)n3C)c1 [Compound 59, (R)-5-(2-chloro-5-(isobutyramidomethyl)benzamido)-1-methyl-N-(1-(4-(trifluoromethoxy)phenyl)ethyl)-1H-indole-2-carboxamide]	9.5 nM
CC(C)C(=O)NCc1ccc(Cl)c(C(=O)Nc2ccc3c(c2)cc(C(=O)NCc2cccc(C(F)(F)F)c2)n3CC(F)(F)F)c1 [Compound 70, 5-(2-chloro-5-(isobutyramidomethyl)benzamido)-1-(2,2,2-trifluoroethyl)-N-(3-(trifluoromethyl)benzyl)-1H-indole-2-carboxamide]	9.65 nM
CC(C)C(=O)NCc1ccc(Cl)c(C(=O)Nc2ccc3c(c2)cc(C(=O)NCc2ccccc2C(F)(F)F)n3CC(F)(F)F)c1 [Compound 63, 5-(2-chloro-5-(isobutyramidomethyl)benzamido)-1-(2,2,2-trifluoroethyl)-N-(2-(trifluoromethyl)benzyl)-1H-indole-2-carboxamide]	14.8 nM
CC(C)C(=O)NCc1ccc(Cl)c(C(=O)Nc2ccc3c(c2)cc(C(=O)N[C@@H](C)c2ccc(OC(F)(F)F)cc2)n3C)c1 [Compound 61, (S)-5-(2-chloro-5-(isobutyramidomethyl)benzamido)-1-methyl-N-(1-(4-(trifluoromethoxy)phenyl)ethyl)-1H-indole-2-carboxamide]	51.6 nM
CC(C)C(=O)NCc1ccc(Cl)c(C(=O)Nc2ccc3c(c2)cc(C(=O)NCc2ccc(F)cc2)n3CC(F)(F)F)c1 [Compound 68, 5-(2-chloro-5-(isobutyramidomethyl)benzamido)-N-(4-fluorobenzyl)-1-(2,2,2-trifluoroethyl)-1H-indole-2-carboxamide]	8.52 nM
CC(C)C(=O)NCc1ccc(Cl)c(C(=O)Nc2ccc3c(c2)cc(C(=O)Nc2ccc(C(F)(F)F)cc2)n3C)c1 [Compound 8, 5-(2-chloro-5-(isobutyramidomethyl)benzamido)-1-methyl-N-(4-(trifluoromethyl)phenyl)-1H-indole-2-carboxamide]	5.22 nM
CC(C)C(=O)NCc1ccc(Cl)c(C(=O)Nc2ccc3c(c2)cc(C(=O)N2CCN(c4ncccn4)CC2)n3C)c1 [Compound 21, 2-chloro-5-(isobutyramidomethyl)-N-(1-methyl-2-(4-(pyrimidin-2-yl)piperazin-1-carbonyl)-1H-indole-5-yl)benzamide]	> 100 nM
CC(C)C(=O)NCc1ccc(Cl)c(C(=O)Nc2ccc3c(c2)cc(C(=O)N[C@@H](C)c2ccc(C(F)(F)F)cc2)n3C)c1 [Compound 60, (S)-5-(2-chloro-5-(isobutyramidomethyl)benzamido)-1-methyl-N-(1-(4-(trifluoromethyl)phenyl)ethyl)-1H-indole-2-carboxamide]	30.3 nM
CC(C)C(=O)NCc1ccc(Cl)c(C(=O)Nc2ccc3c(c2)cc(C(=O)Nc2cccc(F)c2)n3C)c1 [Compound 1, 5-(2-chloro-5-(isobutyramidomethyl)benzamido)-N-(3-fluorophenyl)-1-methyl-1H-indole-2-carboxamide]	277 nM
CC(C)C(=O)NCc1ccc(Cl)c(C(=O)Nc2ccc3c(c2)cc(C(=O)Nc2ccc(Br)cc2)n3C)c1 [Compound 13, N-(4-bromophenyl)-5-(2-chloro-5-(isobutyramidomethyl)benzamido)-1-methyl-1H-indole-2-carboxamide]	26.4 nM
CC(C)C(=O)NCc1ccc(Cl)c(C(=O)Nc2ccc3c(c2)cc(C(=O)Nc2cccc(Cl)c2)n3C)c1 [Compound 3, 5-(2-chloro-5-(isobutyramidomethyl)benzamido)-N-(3-chlorophenyl)-1-methyl-1H-indole-2-carboxamide]	209 nM
CC(C)C(=O)NCc1ccc(Cl)c(C(=O)Nc2ccc3c(c2)cc(C(=O)N[C@@H](C)c2ccc4ccccc4c2)n3CC(F)(F)F)c1 [Compound 65, (S)-5-(2-chloro-5-(isobutyramidomethyl)benzamido)-N-(1-(naphthalen-2-yl)ethyl)-1-(2,2,2-trifluoroethyl)-1H-indole-2-carboxamide]	2.71 nM
CC(C)C(=O)NCc1ccc(Cl)c(C(=O)Nc2ccc3c(c2)cc(C(=O)NCc2ccccc2C(F)(F)F)n3C)c1 [Compound 35, 5-(2-chloro-5-(isobutyramidomethyl)benzamido)-1-methyl-N-(2-(trifluoromethyl)benzyl)-1H-indole-2-carboxamide]	10.4 nM
CC(C)C(=O)NCc1ccc(Cl)c(C(=O)Nc2ccc3c(c2)cc(C(=O)NCc2ccc(C(F)(F)F)cc2)n3C)c1 [Compound 34, 5-(2-chloro-5-(isobutyramidomethyl)benzamido)-1-methyl-N-(4-(trifluoromethyl)benzyl)-1H-indole-2-carboxamide]	7.9 nM
CC(C)C(=O)NCc1ccc(Cl)c(C(=O)Nc2ccc3c(c2)cc(C(=O)N[C@@H](C)c2ccc(Br)cc2)n3CC(F)(F)F)c1 [Compound 67, (S)—N-(1-(4-bromophenyl)ethyl)-5-(2-chloro-5-(isobutyramidomethyl)benzamido)-1-(2,2,2-trifluoroethyl)-1H-indole-2-carboxamide]	1.8 nM
CC(C)C(=O)NCc1ccc(Cl)c(C(=O)Nc2ccc3c(c2)cc(C(=O)NCc2ccc(F)c(Cl)c2)n3C)c1 [Compound 56, N-(3-chloro-4-fluorobenzyl)-5-(2-chloro-5-(isobutyramidomethyl)benzamido)-1-methyl-1H-indole-2-carboxamide]	59.2 nM
CC(C)C(=O)NCc1ccc(Cl)c(C(=O)Nc2ccc3[nH]c(C(=O)Nc4ccc(C(F)(F)F)cc4)cc3c2)c1 [Compound 75, 5-(2-chloro-5-(isobutyramidomethyl)benzamido)-N-(4-(trifluoromethyl)phenyl)-1H-indole-2-carboxamide]	6.49 nM
